Laboratory results published in ChEMBL document CHEMBL1201862, “PubChem BioAssay data set” (2004).
Calls of active or inactive are those of the source.

Experiments:
Ion channel NompC = Ion channel NompC (Danio rerio, UniProt Q7T1G6); assay: Dose response cell-based high-throughput screening assay for agonists of the transient receptor potential channel N1 (TRPN1). [Related pubchem assays (depositor defined):AID1424, AID1448]; format: functional
[1] = biological target: T1, Zinc finger protein mex-5 (Caenorhabditis elegans, UniProt Q9XUB2); assay: MEX-5/TCR-2 RNA interaction inhibitors, dose response, biochemical, C. elegans, fluorescence polarization (AID 1960)
T1 sequence (Q9XUB2 whole entry): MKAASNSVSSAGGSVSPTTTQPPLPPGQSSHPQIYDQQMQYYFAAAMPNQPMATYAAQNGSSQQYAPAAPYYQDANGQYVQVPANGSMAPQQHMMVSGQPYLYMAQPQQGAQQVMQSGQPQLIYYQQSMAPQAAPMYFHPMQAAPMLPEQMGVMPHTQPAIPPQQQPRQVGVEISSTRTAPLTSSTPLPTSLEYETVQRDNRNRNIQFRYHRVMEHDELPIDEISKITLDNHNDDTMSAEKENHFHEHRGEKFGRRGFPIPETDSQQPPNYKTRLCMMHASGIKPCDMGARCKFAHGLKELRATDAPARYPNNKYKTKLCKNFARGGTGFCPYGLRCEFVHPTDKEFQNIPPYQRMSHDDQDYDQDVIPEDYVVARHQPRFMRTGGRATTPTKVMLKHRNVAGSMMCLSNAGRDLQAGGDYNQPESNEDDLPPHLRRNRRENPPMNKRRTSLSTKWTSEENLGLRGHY

Mucolipin-3 = biological target: T2, Mucolipin-3 (Homo sapiens, UniProt Q8TDD5); assay: Fluorescence counterscreen assay for […] agonists: dose response cell-based high-throughput screening assay to identify agonists of the transient receptor potential channel ML3 (TRPML3). [Related pubchem assays: 1424, 1448 ]; format: functional
T2 sequence (Q8TDD5 whole entry): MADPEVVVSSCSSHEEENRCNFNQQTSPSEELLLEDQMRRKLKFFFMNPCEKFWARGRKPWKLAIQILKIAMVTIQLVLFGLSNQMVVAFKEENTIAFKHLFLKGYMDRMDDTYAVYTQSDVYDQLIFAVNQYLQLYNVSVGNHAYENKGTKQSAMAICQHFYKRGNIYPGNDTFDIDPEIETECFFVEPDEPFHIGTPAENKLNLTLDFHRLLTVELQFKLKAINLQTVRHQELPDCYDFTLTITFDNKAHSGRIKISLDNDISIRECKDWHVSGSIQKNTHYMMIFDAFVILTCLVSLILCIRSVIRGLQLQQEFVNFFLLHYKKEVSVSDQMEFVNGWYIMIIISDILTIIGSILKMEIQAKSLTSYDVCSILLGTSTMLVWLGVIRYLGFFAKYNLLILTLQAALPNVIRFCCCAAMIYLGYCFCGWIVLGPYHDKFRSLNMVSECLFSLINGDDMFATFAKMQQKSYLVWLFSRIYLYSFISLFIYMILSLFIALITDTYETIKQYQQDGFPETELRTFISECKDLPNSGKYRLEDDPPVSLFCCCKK

[2] = biological target: T3, RNA-binding protein pos-1 (Caenorhabditis elegans, UniProt G5EF15); assay: inhibitors of POS-1/mex-3 RNA binding, dose response, biochemical, fluorescence polarization (AID 1964);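 further: purified POS-1 fused to maltose binding protein made in E. coli; potency of compounds blocking POS-1 binding to fluorescent RNA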
T3 sequence (G5EF15 whole entry): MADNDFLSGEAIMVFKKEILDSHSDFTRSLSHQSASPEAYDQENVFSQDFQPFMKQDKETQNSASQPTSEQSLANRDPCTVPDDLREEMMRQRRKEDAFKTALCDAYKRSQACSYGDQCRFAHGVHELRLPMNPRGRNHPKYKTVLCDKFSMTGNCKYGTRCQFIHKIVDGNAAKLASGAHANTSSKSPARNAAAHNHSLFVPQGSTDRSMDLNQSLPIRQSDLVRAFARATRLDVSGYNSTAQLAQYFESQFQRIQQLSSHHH

[3] = biological target: Voltage-gated N-type calcium channel alpha-1B subunit/Amyloid beta A4 precursor protein-binding family A member 1 (Homo sapiens, UniProt Q00975+Q02410); assay: disruptors of Mint-PDZ/N-type channel peptide interaction – biochemical, HTRF, set 2, SAR follow-up (AID 434980); format: functional
Sequence of Voltage-gated N-type calcium channel alpha-1B subunit/Amyloid beta A4 precursor protein-binding family A member 1 (Q00975 whole entry): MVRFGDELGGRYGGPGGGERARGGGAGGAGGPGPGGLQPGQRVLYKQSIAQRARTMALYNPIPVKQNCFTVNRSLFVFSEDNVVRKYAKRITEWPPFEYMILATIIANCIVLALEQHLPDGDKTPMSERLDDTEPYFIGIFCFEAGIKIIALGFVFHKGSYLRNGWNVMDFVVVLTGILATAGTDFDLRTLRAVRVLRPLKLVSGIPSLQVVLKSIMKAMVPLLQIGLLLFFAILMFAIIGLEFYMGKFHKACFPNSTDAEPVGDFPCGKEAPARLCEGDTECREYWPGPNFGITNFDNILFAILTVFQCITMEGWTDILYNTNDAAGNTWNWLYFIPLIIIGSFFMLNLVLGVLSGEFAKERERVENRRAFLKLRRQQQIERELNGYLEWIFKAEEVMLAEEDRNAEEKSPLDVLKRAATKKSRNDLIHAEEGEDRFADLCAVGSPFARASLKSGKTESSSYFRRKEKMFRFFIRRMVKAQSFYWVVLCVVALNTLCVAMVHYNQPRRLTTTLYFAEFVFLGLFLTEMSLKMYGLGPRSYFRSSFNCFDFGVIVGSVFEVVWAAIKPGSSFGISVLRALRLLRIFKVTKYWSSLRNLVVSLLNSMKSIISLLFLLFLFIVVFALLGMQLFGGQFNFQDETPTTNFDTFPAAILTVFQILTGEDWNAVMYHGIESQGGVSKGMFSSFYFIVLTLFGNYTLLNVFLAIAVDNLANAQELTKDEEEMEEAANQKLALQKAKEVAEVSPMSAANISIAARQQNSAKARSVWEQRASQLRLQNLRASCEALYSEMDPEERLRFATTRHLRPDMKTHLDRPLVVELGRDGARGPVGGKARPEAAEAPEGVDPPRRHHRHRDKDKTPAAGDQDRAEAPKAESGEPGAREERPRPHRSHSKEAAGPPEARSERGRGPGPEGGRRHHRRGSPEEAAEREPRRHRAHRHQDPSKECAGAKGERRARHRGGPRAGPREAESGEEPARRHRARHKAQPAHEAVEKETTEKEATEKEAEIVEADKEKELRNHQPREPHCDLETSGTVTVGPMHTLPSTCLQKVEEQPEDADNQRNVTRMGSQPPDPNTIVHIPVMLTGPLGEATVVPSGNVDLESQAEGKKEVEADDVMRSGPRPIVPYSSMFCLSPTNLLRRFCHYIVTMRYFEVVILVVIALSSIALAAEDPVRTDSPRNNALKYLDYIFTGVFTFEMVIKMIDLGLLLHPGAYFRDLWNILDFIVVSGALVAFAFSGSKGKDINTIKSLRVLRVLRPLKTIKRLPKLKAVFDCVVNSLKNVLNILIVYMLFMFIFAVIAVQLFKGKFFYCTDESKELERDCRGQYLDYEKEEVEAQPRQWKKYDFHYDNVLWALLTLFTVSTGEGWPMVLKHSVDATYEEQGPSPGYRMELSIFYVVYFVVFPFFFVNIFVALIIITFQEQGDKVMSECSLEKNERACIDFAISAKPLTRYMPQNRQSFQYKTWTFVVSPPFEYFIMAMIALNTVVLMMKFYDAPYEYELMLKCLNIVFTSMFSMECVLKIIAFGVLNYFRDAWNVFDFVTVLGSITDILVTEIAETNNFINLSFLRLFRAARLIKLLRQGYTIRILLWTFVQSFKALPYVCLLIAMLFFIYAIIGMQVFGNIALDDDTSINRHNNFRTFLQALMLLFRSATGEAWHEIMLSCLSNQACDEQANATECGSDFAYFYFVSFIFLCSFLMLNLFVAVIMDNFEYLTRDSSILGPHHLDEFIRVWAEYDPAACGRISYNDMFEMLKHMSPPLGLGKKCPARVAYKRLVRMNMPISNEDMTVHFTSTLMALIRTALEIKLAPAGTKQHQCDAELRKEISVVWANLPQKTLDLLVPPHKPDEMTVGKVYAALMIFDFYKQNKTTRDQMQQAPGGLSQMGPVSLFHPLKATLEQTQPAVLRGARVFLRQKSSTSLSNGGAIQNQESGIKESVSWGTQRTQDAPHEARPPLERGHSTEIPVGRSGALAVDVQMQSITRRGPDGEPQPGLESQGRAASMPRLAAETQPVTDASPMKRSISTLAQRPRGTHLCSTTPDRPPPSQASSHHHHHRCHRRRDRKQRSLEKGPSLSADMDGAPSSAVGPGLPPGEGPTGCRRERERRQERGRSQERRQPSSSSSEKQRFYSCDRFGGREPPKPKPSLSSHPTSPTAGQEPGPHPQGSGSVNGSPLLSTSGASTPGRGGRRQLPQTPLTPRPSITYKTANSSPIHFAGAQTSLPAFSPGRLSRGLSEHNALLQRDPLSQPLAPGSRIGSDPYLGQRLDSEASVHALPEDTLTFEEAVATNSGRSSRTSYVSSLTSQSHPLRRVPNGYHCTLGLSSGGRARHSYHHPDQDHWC
Sequence of Voltage-gated N-type calcium channel alpha-1B subunit/Amyloid beta A4 precursor protein-binding family A member 1 (Q02410 whole entry): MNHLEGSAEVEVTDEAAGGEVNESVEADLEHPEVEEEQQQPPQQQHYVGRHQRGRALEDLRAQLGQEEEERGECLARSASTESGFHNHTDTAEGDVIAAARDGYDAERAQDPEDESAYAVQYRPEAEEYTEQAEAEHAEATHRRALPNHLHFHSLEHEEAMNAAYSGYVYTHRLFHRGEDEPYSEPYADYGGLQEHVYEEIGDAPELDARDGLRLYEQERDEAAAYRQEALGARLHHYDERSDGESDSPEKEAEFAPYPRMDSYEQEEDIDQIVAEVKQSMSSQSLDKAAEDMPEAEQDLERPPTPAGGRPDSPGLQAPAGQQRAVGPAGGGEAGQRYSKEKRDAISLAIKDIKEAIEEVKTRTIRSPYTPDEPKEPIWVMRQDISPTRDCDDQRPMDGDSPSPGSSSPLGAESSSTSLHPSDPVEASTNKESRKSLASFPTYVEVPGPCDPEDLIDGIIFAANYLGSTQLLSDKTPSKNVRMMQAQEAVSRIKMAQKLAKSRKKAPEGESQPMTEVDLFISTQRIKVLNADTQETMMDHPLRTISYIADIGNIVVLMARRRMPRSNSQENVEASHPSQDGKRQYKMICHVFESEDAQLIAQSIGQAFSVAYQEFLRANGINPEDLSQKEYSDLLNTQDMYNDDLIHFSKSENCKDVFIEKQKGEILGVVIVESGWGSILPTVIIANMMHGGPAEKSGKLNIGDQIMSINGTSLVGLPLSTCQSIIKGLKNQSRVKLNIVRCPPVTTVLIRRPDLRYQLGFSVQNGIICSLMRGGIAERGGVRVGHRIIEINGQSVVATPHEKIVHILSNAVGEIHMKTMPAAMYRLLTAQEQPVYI

[4] = biological target: T4, Dual specificity protein phosphatase 6 (Rattus norvegicus, UniProt Q64346); format: functional
T4 sequence (Q64346 whole entry): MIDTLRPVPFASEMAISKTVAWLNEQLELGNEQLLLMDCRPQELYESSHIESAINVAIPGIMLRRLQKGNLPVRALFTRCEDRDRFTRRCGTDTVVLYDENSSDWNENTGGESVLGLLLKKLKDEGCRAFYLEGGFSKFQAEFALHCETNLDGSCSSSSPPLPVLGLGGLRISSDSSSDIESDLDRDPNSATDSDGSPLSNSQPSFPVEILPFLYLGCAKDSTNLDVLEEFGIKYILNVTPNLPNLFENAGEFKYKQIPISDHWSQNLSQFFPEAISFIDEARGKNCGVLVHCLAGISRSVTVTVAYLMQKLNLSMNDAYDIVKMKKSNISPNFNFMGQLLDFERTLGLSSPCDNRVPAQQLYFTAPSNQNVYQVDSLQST

[5] = biological target: T5, Tyrosine-protein phosphatase non-receptor type 7 (Homo sapiens, UniProt P35236); assay: redox-dependent HePTP inhibition, mechanism study, biochemical, fluorescence (AID 2068); format: functional
T5 sequence (P35236 whole entry): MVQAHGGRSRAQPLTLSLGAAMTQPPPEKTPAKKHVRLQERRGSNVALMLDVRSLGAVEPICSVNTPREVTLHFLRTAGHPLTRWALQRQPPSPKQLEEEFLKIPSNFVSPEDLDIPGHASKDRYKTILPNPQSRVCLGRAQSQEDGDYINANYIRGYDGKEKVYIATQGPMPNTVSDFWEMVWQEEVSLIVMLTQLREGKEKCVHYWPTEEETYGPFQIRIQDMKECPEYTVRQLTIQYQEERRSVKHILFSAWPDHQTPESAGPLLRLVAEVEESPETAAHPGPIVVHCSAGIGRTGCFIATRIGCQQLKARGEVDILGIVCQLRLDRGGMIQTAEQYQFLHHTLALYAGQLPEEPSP

[6] = Vero E6 cell cytotoxicity, dose response, cytotoxicity control for non-replicating M. tuberculosis project, secondary assay (AID 492998); format: functional, VeroE6; settings: Vero C1008
[7] = THP-1 cell cytotoxicity, dose response, cytotoxicity control for non-replicating M. tuberculosis project (AID 489025); format: functional
cells = format: functional
[8] = biological target: T6, E3 ubiquitin-protein ligase XIAP (Homo sapiens, UniProt P98170); assay: Counter Screen using XIAP-Bir3 for Chemical Antagonists of Bir1/2 domains of IAP-family anti-apoptotic proteins. [Related pubchem assays (depositor defined):AID1018, AID1449, AID1514, AID1638, AID1749, AID1750, AID488957, AID488963]
T6 sequence (P98170 whole entry): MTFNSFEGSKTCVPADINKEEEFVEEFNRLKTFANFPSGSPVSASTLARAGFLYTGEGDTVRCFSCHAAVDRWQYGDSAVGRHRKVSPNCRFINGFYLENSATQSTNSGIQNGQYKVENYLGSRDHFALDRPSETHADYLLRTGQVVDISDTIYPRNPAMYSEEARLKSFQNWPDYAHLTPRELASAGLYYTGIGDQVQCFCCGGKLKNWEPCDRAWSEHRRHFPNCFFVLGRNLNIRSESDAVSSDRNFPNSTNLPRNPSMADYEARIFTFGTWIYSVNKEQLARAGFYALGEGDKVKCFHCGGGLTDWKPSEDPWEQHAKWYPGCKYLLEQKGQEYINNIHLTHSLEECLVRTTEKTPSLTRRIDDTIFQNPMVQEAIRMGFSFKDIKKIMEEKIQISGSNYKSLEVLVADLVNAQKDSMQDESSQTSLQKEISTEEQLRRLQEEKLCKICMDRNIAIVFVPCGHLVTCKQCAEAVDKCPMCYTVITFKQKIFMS

[9] = biological target: T7, Heat shock factor protein 1 (Mus musculus, UniProt P38532); assay: inhibition of MG132-induced HSE-luciferase signal, confirmation, cell-based, NIH3T3, luminescence, dose retest (AID 2382); format: functional;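 further: NIH3T3 fibroblasts with HSF1-driven luciferase reporter stressed by proteasome inhibitor MG132; luminescence from HSF1-driven luciferase expression after 8 hours of MG132 stress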
T7 sequence (P38532 whole entry): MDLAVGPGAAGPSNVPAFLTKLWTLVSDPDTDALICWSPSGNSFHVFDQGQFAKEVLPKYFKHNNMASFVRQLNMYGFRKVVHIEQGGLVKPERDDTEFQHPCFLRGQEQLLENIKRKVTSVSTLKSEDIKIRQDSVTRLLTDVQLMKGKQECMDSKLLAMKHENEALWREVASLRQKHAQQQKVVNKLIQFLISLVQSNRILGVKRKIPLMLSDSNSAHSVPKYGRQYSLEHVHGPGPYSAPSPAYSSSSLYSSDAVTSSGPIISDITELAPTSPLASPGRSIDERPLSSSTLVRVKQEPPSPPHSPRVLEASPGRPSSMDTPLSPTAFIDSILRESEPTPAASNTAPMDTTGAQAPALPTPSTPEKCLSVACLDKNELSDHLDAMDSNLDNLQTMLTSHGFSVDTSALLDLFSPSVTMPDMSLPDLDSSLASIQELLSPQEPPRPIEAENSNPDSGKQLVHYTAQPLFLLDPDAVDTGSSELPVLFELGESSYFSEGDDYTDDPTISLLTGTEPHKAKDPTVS

[10] = biological target: T6, E3 ubiquitin-protein ligase XIAP; assay: XIAP antagonists, biochemical, IAP family, fluorescence polarization (AID 1018); format: functional
[11] = biological target: Polyadenylate-binding protein 1 (Homo sapiens, UniProt P11940); assay: PABP poly(A) RNA binding inhibitors, primary screen, biochemical, fluorescence polarization, uHTS (AID 2014)
[12] = biological target: Eukaryotic translation initiation factor 4H (Homo sapiens, UniProt Q15056); assay: human eIF4H binding inhibitors, primary screen, translation initiation inhibitor project, biochemical, uHTS, fluorescence polarization (AID 2012)
[13] = biological target: Alkaline phosphatase, placental type (Homo sapiens, UniProt P05187); assay: PLAP enzyme inhibitors, confirmation, biochemical, luminescence (AID 1512); format: functional
Sequence of Alkaline phosphatase, placental type (P05187 whole entry): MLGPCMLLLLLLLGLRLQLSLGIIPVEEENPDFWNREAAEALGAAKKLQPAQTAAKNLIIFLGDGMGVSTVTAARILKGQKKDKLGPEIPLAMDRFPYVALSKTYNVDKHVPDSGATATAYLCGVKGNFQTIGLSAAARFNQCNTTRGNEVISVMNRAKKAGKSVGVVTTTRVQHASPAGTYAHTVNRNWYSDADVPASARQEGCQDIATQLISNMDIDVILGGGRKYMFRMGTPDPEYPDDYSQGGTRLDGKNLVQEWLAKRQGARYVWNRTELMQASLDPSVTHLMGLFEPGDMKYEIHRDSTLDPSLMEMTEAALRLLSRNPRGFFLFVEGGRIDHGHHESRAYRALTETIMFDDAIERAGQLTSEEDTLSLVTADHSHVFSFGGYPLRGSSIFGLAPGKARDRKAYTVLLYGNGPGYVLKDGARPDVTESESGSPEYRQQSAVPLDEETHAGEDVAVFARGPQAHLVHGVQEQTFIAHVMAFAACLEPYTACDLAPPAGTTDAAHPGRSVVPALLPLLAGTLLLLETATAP

[14] = Luminescent dose response cell-based high throughput screening assay for inhibitors of the Janus kinase 2 mutant JAK2V617F. [Related pubchem assays: 1446 (Primary screen.), 1521 (Confirmation assay.), 1486 (Counter screen.)]; format: functional
[15] = biological target: T8, Alkaline phosphatase, tissue-nonspecific isozyme (Homo sapiens, UniProt P05186); assay: human TNAP enzyme inhibitors, SAR follow-up, biochemical, luminescent, dose response (AID 1056)
T8 sequence (P05186 whole entry): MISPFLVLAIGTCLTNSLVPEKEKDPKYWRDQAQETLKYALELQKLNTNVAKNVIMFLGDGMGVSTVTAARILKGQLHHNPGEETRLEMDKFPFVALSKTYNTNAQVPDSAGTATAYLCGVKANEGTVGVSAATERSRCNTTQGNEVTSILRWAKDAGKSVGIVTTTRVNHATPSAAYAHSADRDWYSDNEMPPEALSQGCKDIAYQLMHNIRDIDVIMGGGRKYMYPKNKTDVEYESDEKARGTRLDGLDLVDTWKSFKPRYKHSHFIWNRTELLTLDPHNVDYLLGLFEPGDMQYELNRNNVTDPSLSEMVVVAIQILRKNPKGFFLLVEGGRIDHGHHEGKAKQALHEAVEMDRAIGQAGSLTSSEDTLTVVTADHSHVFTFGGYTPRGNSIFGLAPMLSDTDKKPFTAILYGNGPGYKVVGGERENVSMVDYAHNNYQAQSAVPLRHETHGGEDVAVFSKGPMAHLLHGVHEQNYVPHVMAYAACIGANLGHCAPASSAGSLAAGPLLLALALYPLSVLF

[16] = biological target: Melanin-concentrating hormone receptor 1 (Homo sapiens, UniProt Q99705); assay: Fluorescence-based counterscreen for antagonists of the G-protein coupled receptor 7 (GPR7): cell-based high throughput dose response assay to identify antagonists of the melanin-concentrating hormone receptor 1 (MCHR1).; format: functional
[17] = biological target: T9, Neuropeptides B/W receptor type 1 (Homo sapiens, UniProt P48145); assay: Fluorescence-based dose response cell-based high throughput screening assay to identify antagonists of the G-protein coupled receptor 7 (GPR7). [Related pubchem assays: 1952 (Screening assay (GPR7 antagonists).), 1880 (Summary AID.)]; format: functional
T9 sequence (P48145 whole entry): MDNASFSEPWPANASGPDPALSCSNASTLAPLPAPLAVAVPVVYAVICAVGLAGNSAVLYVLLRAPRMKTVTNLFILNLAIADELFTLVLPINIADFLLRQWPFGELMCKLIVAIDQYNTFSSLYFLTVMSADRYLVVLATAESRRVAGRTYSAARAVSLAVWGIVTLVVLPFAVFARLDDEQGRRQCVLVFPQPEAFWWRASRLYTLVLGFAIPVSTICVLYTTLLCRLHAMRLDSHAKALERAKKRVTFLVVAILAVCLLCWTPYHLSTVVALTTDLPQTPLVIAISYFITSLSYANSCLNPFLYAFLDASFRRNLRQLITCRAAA

[18] = biological target: T7, Heat shock factor protein 1; assay: HSF1 potentiators in luciferase reporter cells, confirmation, cell-based, NIH3T3, luminescence, dose retest (AID 435004); format: functional;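 further: stress induced by proteasome inhibitor MG132 added 30 min after compound; luciferase reporter driven by HSF1 response element in NIH3T3 cells; actives raise luminescence as potentiators of the MG132 stress response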
[19] = biological target: T4, Dual specificity protein phosphatase 6
[20] = biological target: Glyceraldehyde-3-phosphate dehydrogenase (Homo sapiens, UniProt P04406)
Sequence of Glyceraldehyde-3-phosphate dehydrogenase (P04406 whole entry): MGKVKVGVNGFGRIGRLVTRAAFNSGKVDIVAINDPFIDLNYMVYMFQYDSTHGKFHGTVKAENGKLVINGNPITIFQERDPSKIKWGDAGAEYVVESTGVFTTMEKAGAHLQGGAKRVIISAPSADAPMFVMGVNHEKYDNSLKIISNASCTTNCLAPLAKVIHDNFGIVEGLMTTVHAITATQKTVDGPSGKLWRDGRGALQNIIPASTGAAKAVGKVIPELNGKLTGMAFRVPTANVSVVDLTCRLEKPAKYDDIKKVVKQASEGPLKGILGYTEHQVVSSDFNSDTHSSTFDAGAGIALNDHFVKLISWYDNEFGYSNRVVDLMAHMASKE

[21] = biological target: T5, Tyrosine-protein phosphatase non-receptor type 7; format: functional

Structure (SMILES): CC(C)/C=C1\CC/C(=C\c2ccc(N(C)C)cc2)C1=O
- EC50 (Ion channel NompC): 0.507 µM (active)
- EC50 [1]: > 300 µM (inconclusive)
- EC50 (Mucolipin-3): 1.9 µM (active)
- EC50 [2]: > 300 µM (not active)

Structure (SMILES): O=C(Nc1ncc(-c2ccccc2)s1)c1cc(-c2ccco2)nc2ccccc12
- IC50 [3]: 18 µM (active)

Structure (SMILES): COc1cc(C(=S)NCc2ccc(F)c(C(F)(F)F)c2)ccc1O
- IC50 [4]: > 100 µM (inactive)
- IC50 [5]: 1.65 µM (active)

Structure (SMILES): COc1cccc(/C=C2\SC(=S)N(CCC(=O)N3CCCCC3)C2=O)c1
- CC50 [6]: 8.75 µM (active)
- CC50 [7]: 18.6 µM (active)
- IC50 (cells): 17.2 µM (active)

Structure (SMILES): O=C(c1ccc(O)cc1)c1ccc(C(=O)O)c(C(=O)O)c1
- IC50 [8]: > 100 µM (inactive)
- EC50 [9]: > 195 µM (not active)
- IC50 [10]: > 100 µM (not active)

Structure (SMILES): CN1/C(=C/c2cccc[n+]2CCO)Sc2ccccc21
- IC50 [11]: 1.87 µM (active)
- IC50 [12]: > 100 µM (inactive)

Structure (SMILES): COc1ccc(-n2nnnc2SCC(=O)c2ccc(O)c(O)c2)cc1
- IC50 [13]: 1.42 µM (active)
- IC50 [14]: 1.46 µM (active)
- IC50 [15]: 5.93 µM (active)

Structure (SMILES): Cc1ccccc1CC1(CO)CCCN(C(=O)c2ccccc2Cl)C1 (configuration not stated)
- IC50 [16]: 33.3 µM (not active)
- IC50 [17]: > 43.8 µM (not active)
- EC50 [18]: > 260 µM (inactive)

Structure (SMILES): C[C@@H](C(N)=O)n1c(=O)n(Cc2ccccc2)c(=O)n(-c2ccccc2)c1=O
- IC50 [4]: > 100 µM (inactive)
- IC50 [19]: > 100 µM (inactive)
- IC50 [20]: > 100 µM (not active)
- IC50 [21]: > 100 µM (not active)

Structure (SMILES): CCn1c(SCC(=O)c2ccc(O)c(O)c2)nnc1-c1ccc(OC)cc1
- IC50 [13]: 8.31 µM (inactive)
- IC50 [15]: > 100 µM (inactive)
